In patent US20260207388A1, “WOUND DRESSING” (ConvaTec Limited, priority 2023, published 2026):

Legend:
Conditions in all cases: EDTA at concentrations of 0.1-40 wt. % by volume
Pseudomonas aeruginosa = tested on: Pseudomonas aeruginosa
Serratia marcescens = tested on: Serratia marcescens
[1] = tested on: vancomycin resistant Enterococcus (VRE)
[2] = tested on: methicillin resistant Staphylococcus aureus (MRSA)

Measured: killing of microorganisms in the planktonic and biofilm state

O=C(O)CN(CCN(CC(=O)O)CC(=O)O)CC(=O)O [EDTA, ethylenediaminetetra-acetic acid]
effectively killed: all assays above
